Measured values published in patent publication EP0623340B1, “Use of hydroxy or dihydroxynaphthalene in the preparation of a cosmetic or dermatological composition for skin whitening” (L'OREAL, priority 1993, dated 1994).

What follows are compounds tested on tyrosinase de champignons (assay: in vitro tyrosinase activity inhibition test (dopachrome formation followed at 475 nm)). Conditions: lowering of maximal dopachrome formed (OD 475 nm at plateau) vs no inhibitor; inhibitor at 50 % molaire relative to tyrosine; pH 6,5; 25°C.
Assay type: biochemical
Excerpt: Certains des composés de formule générale (I) ont été étudiés comparativement à l'hydroquinone à quantité molaire équivalente dans le test d'inhibition in vitro de l'activité de la tyrosinase.
Selon ce test on suit par spectrométrie visible à 475 nm la quantité de dopachrome formée au cours de la chaîne de réactions de transformation de la tyrosine en mélanines. Ces réactions sont catalysées in vitro par la tyrosinase de champignons, en présence d'un co-substrat réducteur (par exemple la L-dopa en petite quantité) pour initier la réaction d'hydroxylation de la L-tyrosine en L-dopa, laquelle est ensuite oxydée catalytiquement en dopaquinone puis en dopachrome, produit intermédiaire avant les réactions d'oxydation non enzymatiques aboutissant à la formation des mélanines.
On mesure donc la concentration en dopachrome formé au cours du temps en présence et en absence de l'inhibiteur.
Les concentrations en inhibiteurs sont fixées à 50 % molaire par rapport à la concentration en tyrosine dans le milieu réactionnel.
On exprime l'effet d'inhibition par l'abaissement de la quantité maximale de dopachrome formée (valeur de densité optique à 475 nm lue au plateau de la courbe) par rapport à la quantité obtenue en l'absence d'inhibiteur.
• A - Tampon phosphate 0,1 M pH = 6,5 (Tween 20 à 1 %) • B - Solution mère de L-tyrosine à 2.10^-3 M dans A • C - Solution mère de L-dopa à 10^-4 M dans A • D - Solution mère de tyrosinase de champignons à 2.400 unités/ml dans A • E - Solution mère de l'inhibiteur à 10^-2 M dans A (les solutions C et D sont à préparer le jour même)
• cuve de référence : 3 ml de A • cuve d'essai : 1 ml de B 0,1 ml de C 1,85ml de A + E • homogénéiser et équilibrer à 25°C • ajouter 0,05 ml de D • mélanger rapidement et observer la cinétique par la mesure de l'absorbance à 475 nm en fonction du temps.

Row | % change in maximal dopachrome formed vs no inhibitor | SMILES
1 | -47% | Oc1ccc2c(O)cccc2c1 [[drawing] r3]
2 | -91% | Oc1ccc2cc(O)ccc2c1 [[drawing] r4]

Row | SMILES | % change in maximal dopachrome formed vs no inhibitor
3 | Oc1ccc(O)cc1 [hydroquinone, reference compound] | -33%
